Data: patent publication US8865967B2 (priority 2010, dated 2014)

Tested on: Colletotrichum graminicola (CGR; isolate Carroll-IA-99)
Assay type: cell-based
Conditions: in words, variant after one round of DNA shuffling

## Pp-PDF1-1C-7A4: Pp-PDF1 variant from first shuffling round (RVCEKPSKFFKGLCGSDRDCTNACRKEGLATGECQSKGFFNSVCVCKKPC; Synthetic sequence obtained from DNA shuffling of a plant sequence.)
  in vitro inhibitory activity against Colletotrichum graminicola: significantly improved
